This is an account of results in patent US20230174561A1, “IONIC COMPOUND AND COMPOSITION THEREOF FOR HYDROPHOBIC PROTEIN EXTRACTION; AND ANTI-NONSPECIFIC PROTEIN ADSORPTION ZWITTERIONIC COMPOUND AND ELEMENT WITH ANTI-NONSPECIFIC PROTEIN ADSORPTION LAYER COMPRISING THE SAME” (priority 2021, published 2023).

Where two headings read alike, the source gives them in different places.

One data set relates to gliadin. Kind of data set: Solubility of gliadin in ionic solutions (excess gliadin, Wheat/Gluten (Gliadin) ELISA Kit). Format: physicochemical. The protocol:
Gliadin is a hydrophobic protein present in gluten of wheat. Unless specifically stated, gliadin (G3375, Sigma-Aldrich; CAS No. 9007-90-3) or was used in the following tests.
First of all, ionic solutions of [DMePIm][OMs] with a concentration of 0.1 wt %, 1 wt %, 2 wt %, 5 wt % and 10 wt % in water were prepared. 3 grams (g) of gliadin (excess amount) was added into 10 mL of each [DMePIm][OMs] ionic solution, mixed homogenously and stood still for 5 min to give sample solutions for Test Example 1. All sample solutions were centrifuged at 8500 rpm for 3 min and filtered with a filter with 0.22 μm pore size. Water (0 wt %) was used as the control group. After that, Wheat/Gluten (Gliadin) ELISA Kit (Crystal chem, AOAC No. 011804) was used to determine the concentration and solubility of gliadin. Since the examination of the Wheat/Gluten (Gliadin) ELISA Kit is about 100 ppm, the gliadin concentration was determined by diluted sample solutions with at least 50-fold dilution by the corresponding ionic solution, in order to calculate the gliadin concentration of the sample solutions.
Similar with Test Example 1, except that 3 g of gliadin was added into 10 mL of 1 wt % ionic solution of [DMeIm][OMs](value “a” of Formula I is 0), [TMeIm][OMs] (a=1), [DMePrIm][OMs] (a=3), [DMePIm][OMs] (a=5), [DMeHpIm][OMs] (a=7), [DMeNnIm][OMs] (a=9) or [DMeDdIm][OMs] (a=12). […] (a=5), [DMeHpIm][OMs] (a=7), [DMeNnIm][OMs] ([…]) and [DMeDdIm][OMs] (a=12) ionic solutions, in which the corresponding groups attached on 3-position of the 1,2-dimethyl imidazolium had different carbon numbers (value “a” of Formula I) of 5, 7, 9 and 12, respectively. The [DMeDdIm][OMs]
Similar with Test Example 1, except that 3 g of gliadin was respectively added into 10 mL of 1 wt % ionic solutions of [DMePIm][Cl], [DMePIm][F], [DMePIm][OMs], [DMePIm][NO3], [DMePIm][H2PO4] and [DMePIm][HSO4].
(In general: ELISA stands for enzyme-linked immunosorbent assay.)

Data set [1] has as its system Mouse N2a neuroblastoma cells (N2a cells). Kind of data set: Biocompatibility, XTT cell survival test. Format: cell-based. As to conditions: 0.1, 1, 2, 5 and 10 wt % in medium, 6 h, FIG. 7. The protocol: Mouse N2a neuroblastoma cells (N2a cells) were cultured and maintained in DMEM High Glucose with L-glutamine and sodium pyruvate (DMEM-HPA-P10, Capricorn Scientific) containing 10% fetal bovine serum (FBS). The N2a cells were seeded in a 6-well plate with a density of 2×10^5 cells/well overnight. Then the medium was replaced with a testing DMEM High Glucose medium containing 0.1 wt %, 1 wt %, 2 wt %, 5 wt % and 10 wt % of [DMePIm][OMs] and the cells were incubated in an incubator (37° C., 5% CO2 humidified atmosphere) for 6 h. The testing medium was removed, the cells were washed, and new DMEM High Glucose containing 10% FBS was added and incubated for another 12 h. After that, the cells were subjected to XTT test (X12223, purchased from Thermo Fisher) for determining cell survival rate.

As for `CCCCCCCCC[n+]1ccn(C)c1C.CS(=O)(=O)[O-]` [[DMeNnIm][OMs], [1,2-dimethyl, 3-nonyl imidazolium][methanesulfonyl]], the “solubility of gliadin in ionic solutions with different cations” value (shortened to “solubility … with different cations”) in the data set with gliadin is “higher solubility”.
Turning to `CCCCCCCCCCCC[n+]1ccn(C)c1C.CS(=O)(=O)[O-]` [[DMeDdIm][OMs], [1,2-dimethyl, 3-dodecyl imidazolium][methanesulfonyl]], in the data set with gliadin (1 wt % ionic solution), the “viscosity of ionic solution” value is on record as “higher viscosity”.
As for `CCCCCCC[n+]1ccn(C)c1C.CS(=O)(=O)[O-]` [[DMeHpIm][OMs], [1,2-dimethyl, 3-heptyl imidazolium][methanesulfonyl]], the “solubility … with different cations” value with gliadin is “higher solubility”.
For `CCCCC[n+]1ccn(C)c1C` [[DMePIm][OMs], [1,2-dimethyl, 3-pentyl imidazolium][methanesulfonyl]], the “concentration of gliadin over time” value in the data set with gliadin (1 wt % ionic solution, 1-30 min, FIG. 2) is recorded as “reached its maximum solubility shortly”. In addition, in the data set on gliadin (1 wt % ionic solution, FIG. 3), the “solubility … with different cations” value is listed as “higher solubility”. In the data set with gliadin (1 wt % ionic solution, FIG. 4), the “solubility of gliadin in ionic solutions with different anions” value is on record as “greatest solubility”. In addition, in data set [1], the “survival rates of cells” value is on record as “high”.
